Data as given in publication doi:10.1101/2021.04.08.439011v1 (biorxiv, 2021).
Where two headings read alike, the source gives them in different places.

Key:
[1] = target: ULK3 (Homo sapiens, UniProt Q6PHR2); details: 0.1 µM; binder
[2] = target: GSK3B (Homo sapiens, UniProt P49841); details: 0.1 µM; binder
[3] = target: GSK3A (Homo sapiens, UniProt P49840); details: 0.1 µM; binder
[4] = target: MST1R (Homo sapiens, UniProt Q04912); details: 0.1 µM; binder
[5] = target: MAP4K5 (Homo sapiens, UniProt Q9Y4K4); details: 0.1 µM; binder
[6] = target: MAP4K3 (Homo sapiens, UniProt Q8IVH8); details: 0.1 µM; binder
[7] = target: TNK1 (Homo sapiens, UniProt Q13470); details: 0.1 µM; binder
TNK1, sequence (Q13470 whole entry): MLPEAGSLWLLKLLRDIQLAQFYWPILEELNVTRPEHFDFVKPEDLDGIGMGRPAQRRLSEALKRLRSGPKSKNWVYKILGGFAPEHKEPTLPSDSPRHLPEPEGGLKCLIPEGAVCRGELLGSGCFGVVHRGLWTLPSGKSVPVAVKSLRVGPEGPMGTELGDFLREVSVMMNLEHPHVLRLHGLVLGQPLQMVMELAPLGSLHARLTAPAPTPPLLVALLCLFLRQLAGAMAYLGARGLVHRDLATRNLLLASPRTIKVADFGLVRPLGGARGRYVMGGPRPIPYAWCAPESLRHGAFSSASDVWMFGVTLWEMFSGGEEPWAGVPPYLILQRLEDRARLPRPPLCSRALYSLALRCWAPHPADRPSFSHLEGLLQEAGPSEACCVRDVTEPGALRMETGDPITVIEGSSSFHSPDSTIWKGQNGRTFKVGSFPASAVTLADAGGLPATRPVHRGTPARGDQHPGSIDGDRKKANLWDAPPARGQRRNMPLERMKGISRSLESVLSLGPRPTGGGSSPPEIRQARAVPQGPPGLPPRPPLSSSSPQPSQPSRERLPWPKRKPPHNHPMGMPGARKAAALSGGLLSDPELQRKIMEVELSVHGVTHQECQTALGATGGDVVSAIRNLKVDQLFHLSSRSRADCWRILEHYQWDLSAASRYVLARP

[8] = target: RET(V804M) (Homo sapiens, UniProt P07949, V804M); details: 0.1 µM; binder
[9] = target: PLK2 (Homo sapiens, UniProt Q9NYY3); details: 0.1 µM; binder
PLK2, sequence (Q9NYY3 whole entry): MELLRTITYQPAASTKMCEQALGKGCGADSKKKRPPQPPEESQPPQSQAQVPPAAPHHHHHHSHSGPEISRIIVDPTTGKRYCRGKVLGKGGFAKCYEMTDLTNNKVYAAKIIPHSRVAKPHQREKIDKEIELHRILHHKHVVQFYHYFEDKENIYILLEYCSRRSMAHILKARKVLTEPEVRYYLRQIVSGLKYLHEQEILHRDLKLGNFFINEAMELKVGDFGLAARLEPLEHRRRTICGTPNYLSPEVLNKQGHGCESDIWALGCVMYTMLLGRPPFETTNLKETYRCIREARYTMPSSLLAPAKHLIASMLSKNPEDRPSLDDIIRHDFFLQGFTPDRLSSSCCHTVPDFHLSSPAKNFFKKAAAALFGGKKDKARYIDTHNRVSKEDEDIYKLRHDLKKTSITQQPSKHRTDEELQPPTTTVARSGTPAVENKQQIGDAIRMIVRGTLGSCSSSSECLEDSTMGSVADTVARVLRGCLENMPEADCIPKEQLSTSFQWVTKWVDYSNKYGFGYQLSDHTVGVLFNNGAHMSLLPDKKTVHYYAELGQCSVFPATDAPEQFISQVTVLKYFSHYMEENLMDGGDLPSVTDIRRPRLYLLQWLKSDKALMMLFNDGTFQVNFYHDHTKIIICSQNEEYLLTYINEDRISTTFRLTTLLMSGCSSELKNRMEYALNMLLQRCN

[10] = target: EPHB3 (Homo sapiens, UniProt P54753); details: 0.1 µM; binder
[11] = target: AURKC (Homo sapiens, UniProt Q9UQB9); details: 0.1 µM; binder
AURKC, sequence (Q9UQB9 whole entry): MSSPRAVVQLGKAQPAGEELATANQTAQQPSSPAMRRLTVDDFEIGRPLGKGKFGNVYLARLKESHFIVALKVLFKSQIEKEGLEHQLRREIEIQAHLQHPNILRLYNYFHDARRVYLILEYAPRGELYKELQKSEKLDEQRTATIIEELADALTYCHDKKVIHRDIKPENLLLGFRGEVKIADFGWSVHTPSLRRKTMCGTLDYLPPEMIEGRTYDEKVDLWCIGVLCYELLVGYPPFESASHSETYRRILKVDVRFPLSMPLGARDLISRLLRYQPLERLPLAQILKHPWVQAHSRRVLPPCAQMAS

[12] = target: ABL1(Y253F) (Homo sapiens, UniProt P00519, Y253F); details: phosphorylated; 0.1 µM; binder
[13] = target: AURKA (Homo sapiens, UniProt O14965); details: 0.1 µM; binder
[14] = target: OSR1 (Homo sapiens, UniProt O95747); details: 0.1 µM; binder
OSR1, sequence (O95747 whole entry): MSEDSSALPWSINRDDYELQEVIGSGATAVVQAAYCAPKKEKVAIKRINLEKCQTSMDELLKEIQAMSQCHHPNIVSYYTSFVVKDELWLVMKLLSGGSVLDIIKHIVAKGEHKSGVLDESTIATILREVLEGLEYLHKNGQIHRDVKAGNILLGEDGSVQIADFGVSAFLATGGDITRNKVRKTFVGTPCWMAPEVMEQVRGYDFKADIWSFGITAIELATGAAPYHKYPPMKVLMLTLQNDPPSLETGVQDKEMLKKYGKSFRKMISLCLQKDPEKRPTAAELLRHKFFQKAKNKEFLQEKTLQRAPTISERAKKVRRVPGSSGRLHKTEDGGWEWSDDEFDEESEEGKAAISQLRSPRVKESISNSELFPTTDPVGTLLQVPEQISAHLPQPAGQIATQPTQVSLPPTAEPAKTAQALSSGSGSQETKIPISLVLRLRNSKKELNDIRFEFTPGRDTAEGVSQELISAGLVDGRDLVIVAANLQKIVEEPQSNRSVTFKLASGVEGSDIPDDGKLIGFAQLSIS

[15] = target: GAK (Homo sapiens, UniProt O14976); details: 0.1 µM; binder
[16] = target: CAMKK2 (Homo sapiens, UniProt Q96RR4); details: 0.1 µM; binder
[17] = target: DCAMKL3 (Homo sapiens, UniProt Q9C098); details: 0.1 µM; binder
[18] = target: RIOK1 (Homo sapiens, UniProt Q9BRS2); details: 0.1 µM; binder
[19] = target: PAK6 (Homo sapiens, UniProt Q9NQU5); details: 0.1 µM; binder
[20] = target: ZAK (Homo sapiens, UniProt Q9NYL2); details: 0.1 µM; binder
[21] = target: DAPK3 (Homo sapiens, UniProt O43293); details: 0.1 µM; binder
[22] = target: BMX (Homo sapiens, UniProt P51813); details: 0.1 µM; binder
[23] = target: FLT3(D835V) (Homo sapiens, UniProt P36888, D835V); details: 0.1 µM; binder
[24] = target: MAP4K4 (Homo sapiens, UniProt O95819); details: 0.1 µM; binder
[25] = target: ICK (Homo sapiens, UniProt Q9UPZ9); details: 0.1 µM; binder
[26] = target: SRPK1 (Homo sapiens, UniProt Q96SB4); details: 0.1 µM; binder
[27] = target: EGFR(L858R,T790M) (Homo sapiens, UniProt P00533, L858R/T790M); details: 0.1 µM; binder
[28] = target: CSF1R (Homo sapiens, UniProt P07333); details: 0.1 µM, binder
CSF1R, sequence (P07333 whole entry): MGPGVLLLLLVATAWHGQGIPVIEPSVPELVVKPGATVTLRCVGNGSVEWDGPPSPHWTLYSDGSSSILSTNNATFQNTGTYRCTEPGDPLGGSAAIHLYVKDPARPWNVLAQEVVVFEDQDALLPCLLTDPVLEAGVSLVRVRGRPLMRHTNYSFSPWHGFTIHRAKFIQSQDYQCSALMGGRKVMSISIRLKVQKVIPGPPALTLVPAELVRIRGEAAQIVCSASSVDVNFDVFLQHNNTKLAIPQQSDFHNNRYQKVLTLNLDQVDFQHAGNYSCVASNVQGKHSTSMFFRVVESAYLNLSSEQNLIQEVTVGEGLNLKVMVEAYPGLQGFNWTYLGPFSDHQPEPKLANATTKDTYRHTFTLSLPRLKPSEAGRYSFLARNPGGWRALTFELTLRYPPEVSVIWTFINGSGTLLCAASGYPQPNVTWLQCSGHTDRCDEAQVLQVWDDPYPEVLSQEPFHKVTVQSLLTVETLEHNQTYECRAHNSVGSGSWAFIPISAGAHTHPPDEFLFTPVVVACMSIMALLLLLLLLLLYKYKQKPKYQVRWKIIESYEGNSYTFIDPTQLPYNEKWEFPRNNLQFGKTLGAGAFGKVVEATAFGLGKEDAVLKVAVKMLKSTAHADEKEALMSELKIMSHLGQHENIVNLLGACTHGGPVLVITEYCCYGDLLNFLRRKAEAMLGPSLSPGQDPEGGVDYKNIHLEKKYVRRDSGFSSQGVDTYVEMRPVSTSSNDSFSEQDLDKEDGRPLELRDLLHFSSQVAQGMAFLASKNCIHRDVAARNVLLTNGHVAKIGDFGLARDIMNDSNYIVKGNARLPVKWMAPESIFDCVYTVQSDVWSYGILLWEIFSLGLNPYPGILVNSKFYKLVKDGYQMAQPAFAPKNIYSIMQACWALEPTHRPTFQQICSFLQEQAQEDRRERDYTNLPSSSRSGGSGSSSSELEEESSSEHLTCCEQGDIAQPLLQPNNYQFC

[29] = target: NEK1 (Homo sapiens, UniProt Q96PY6); details: 0.1 µM; binder
[30] = target: PIP5K1C (Homo sapiens, UniProt O60331); details: 0.1 µM; binder
[31] = target: PLK1 (Homo sapiens, UniProt P53350); details: 0.1 µM; binder

MST1R, sequence (Q04912 whole entry): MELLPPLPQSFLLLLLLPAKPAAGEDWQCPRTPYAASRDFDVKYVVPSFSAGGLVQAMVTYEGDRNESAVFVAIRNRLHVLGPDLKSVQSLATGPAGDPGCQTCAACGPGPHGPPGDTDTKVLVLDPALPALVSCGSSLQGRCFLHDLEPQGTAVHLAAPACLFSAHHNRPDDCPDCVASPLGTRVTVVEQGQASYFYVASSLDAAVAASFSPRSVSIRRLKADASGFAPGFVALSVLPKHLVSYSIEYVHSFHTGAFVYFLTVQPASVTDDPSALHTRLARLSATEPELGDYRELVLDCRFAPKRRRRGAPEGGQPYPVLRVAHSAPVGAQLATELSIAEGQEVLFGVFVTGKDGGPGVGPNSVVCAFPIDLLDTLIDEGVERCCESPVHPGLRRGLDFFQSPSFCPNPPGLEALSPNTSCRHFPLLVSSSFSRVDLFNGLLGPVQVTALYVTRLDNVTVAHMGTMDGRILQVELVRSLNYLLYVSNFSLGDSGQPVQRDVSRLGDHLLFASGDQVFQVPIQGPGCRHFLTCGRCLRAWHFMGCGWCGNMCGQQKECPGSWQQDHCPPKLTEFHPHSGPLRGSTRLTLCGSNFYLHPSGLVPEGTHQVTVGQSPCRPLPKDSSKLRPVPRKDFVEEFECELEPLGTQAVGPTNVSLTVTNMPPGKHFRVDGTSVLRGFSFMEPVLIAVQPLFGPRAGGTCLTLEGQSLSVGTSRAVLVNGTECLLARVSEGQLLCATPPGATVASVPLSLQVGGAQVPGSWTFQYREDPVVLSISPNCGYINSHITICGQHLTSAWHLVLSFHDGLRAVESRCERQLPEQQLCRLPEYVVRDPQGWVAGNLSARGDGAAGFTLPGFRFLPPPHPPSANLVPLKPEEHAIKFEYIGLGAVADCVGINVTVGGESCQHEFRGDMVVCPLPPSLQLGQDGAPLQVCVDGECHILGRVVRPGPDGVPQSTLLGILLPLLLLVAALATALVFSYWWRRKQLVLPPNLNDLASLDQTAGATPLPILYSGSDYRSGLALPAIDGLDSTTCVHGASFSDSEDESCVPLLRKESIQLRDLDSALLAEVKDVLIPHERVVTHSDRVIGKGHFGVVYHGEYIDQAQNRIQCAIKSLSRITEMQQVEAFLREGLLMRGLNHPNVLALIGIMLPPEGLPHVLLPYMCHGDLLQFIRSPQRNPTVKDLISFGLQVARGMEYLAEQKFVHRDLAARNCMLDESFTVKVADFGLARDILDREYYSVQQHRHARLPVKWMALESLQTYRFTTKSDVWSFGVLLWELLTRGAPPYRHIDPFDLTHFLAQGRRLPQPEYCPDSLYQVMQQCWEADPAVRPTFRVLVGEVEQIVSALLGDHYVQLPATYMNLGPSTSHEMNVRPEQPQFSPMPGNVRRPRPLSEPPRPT
ULK3, sequence (Q6PHR2 whole entry): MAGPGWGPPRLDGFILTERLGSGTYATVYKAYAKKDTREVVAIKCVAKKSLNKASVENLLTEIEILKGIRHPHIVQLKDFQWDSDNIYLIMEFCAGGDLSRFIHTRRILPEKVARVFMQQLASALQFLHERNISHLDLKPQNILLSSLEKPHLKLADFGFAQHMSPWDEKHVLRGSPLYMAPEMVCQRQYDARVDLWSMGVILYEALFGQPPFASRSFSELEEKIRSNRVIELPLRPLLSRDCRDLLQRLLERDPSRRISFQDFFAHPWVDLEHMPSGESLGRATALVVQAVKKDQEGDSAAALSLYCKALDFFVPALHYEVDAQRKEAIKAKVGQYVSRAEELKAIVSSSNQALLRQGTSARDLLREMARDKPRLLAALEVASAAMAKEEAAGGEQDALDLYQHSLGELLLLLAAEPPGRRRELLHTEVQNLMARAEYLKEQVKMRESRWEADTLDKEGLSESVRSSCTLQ

## CNc1ncc2cc(-c3ccc(-c4cccc(C)n4)cc3Cl)c(=O)n(C[C@H]3OC[C@H](N)CO3)c2n1 [compound 6, G-5555]
[1]
  Percent Control: 90%
[2]
  Percent Control: 97%
[3]
  Percent Control: 100%
[4]
  Percent Control: 73%
[5]
  Percent Control: 18%
[6]
  Percent Control: 85%
[7]
  Percent Control: 100%
[8]
  Percent Control: 86%
[9]
  Percent Control: 75%
[10]
  Percent Control: 100%
[11]
  Percent Control: 37%
[12]
  Percent Control: 97%
[13]
  Percent Control: 98%
[14]
  Percent Control: 99%
[15]
  Percent Control: 51%
[16]
  Percent Control: 100%
[17]
  Percent Control: 29%
[18]
  Percent Control: 100%
[19]
  Percent Control: 92%
[20]
  Percent Control: 97%
[21]
  Percent Control: 100%
[22]
  Percent Control: 100%
[23]
  Percent Control: 85%
[24]
  Percent Control: 100%
[25]
  Percent Control: 100%
[26]
  Percent Control: 94%
[27]
  Percent Control: 100%
[28]
  Percent Control: 89%
[28]; autoinhibited
  Percent Control: 97%
[29]
  Percent Control: 100%
[30]
  Percent Control: 100%
[31]
  Percent Control: 82%
